Source: patent publication US7002012B2, “Substituted (1,3-bis(cyclohexylmethyl)-1,2,3,6-tetrahydro-2,6-dioxo-9h-purin-8-YI)phenyl derivatives, their preparation and their use in the treatment of inflammatory conditions and immune disorders” (SmithKline Beecham Corporation, priority 1997, dated 2006)

Key:
male Lewis rats [1] = test: Carrageenan Pleurisy Assay; format: in vivo, rat; conditions: for CARRAGEENAN PLEURISY (4 hr) LOCAL ED50 (MG/RAT) CELLS: inhibition of inflammatory cells (neutrophils) in pleural exudate four hours after carrageenan 0.075 mg/rat; for CARRAGEENAN PLEURISY (4 hr) LOCAL ED50 (MG/RAT) CELLS / CARRAGEENAN PLEURISY (4 hr) LOCAL ED50 (MG/RAT) EDEMA: local administration; for CARRAGEENAN PLEURISY (4 hr) LOCAL ED50 (MG/RAT) EDEMA: inhibition of pleural edema four hours after carrageenan 0.075 mg/rat
Procedure: The antiinflammatory activity of compounds of the invention was determined by the procedure of Vinegar, R, et al., Proc. Soc. Exp. Biol. Med., 1981, 168, 24–32, using male Lewis rats of 150±±}20 grams. The carrageenan dose was 0.075 mg/rat. Pleural exudate was harvested four hours after injection of carrageenan. Acute antiinflammatory activity was determined by inhibition of pleural edema and inflammatory cells (neutrophils) from a negative (vehicle) control group.

male Lewis rats [2] = test: Acetic Acid Colitis Assay; format: in vivo, rat; conditions: for ACETIC ACID COLITIS (24 hr) ACTIVE DOSE [MG/KG] (ROUTE) TISSUE WEIGHT: colon weight (edema); for ACETIC ACID COLITIS (24 hr) ACTIVE DOSE [MG/KG] (ROUTE) MPO: mucosal MPO levels
Procedure: Compounds were administered either orally or rectally 24, 16 and 4 hours prior to the 40 second instillation of 3% acetic acid solution in the proximal 6 cm of the colon under light anesthesia. The colon was immediately washed with 5 cc of saline. 24 hours later the rats were sacrificed and 6 cm of the proximal colon was excised weighed for edema. Neutrophil inflammation was determined by measuring MPO levels in the scraped colonic mucosa from these rats.

Male CD-1 mice = test: In Vivo Septic Shock Model: C Parvum/LPS Shock; conditions: oral dose 75 mg/kg, 2 hours before the LPS and at the same time as the LPS
Procedure: Male CD-1 mice, 25–30 g (Charles River: Raleigh, N.C.), are injected intravenously (i.v.) with 100 μμ}g killed C. Parvum (Coparvax; Burroughs Wellcome, RTP, NC).Ten days later the mice are injected i.v. with 20 μμ}g E. Coli 026:B6 lipopolysaccharide (LPS; Difco Labs, Detroit, Mich.) in the presence of the analgesic butorphenol (150 μμ}g per mouse).
The test compounds are dissolved in dimethyl sulphoxide and diluted into 0.5% methyl cellulose and then dosed orally 2 hours before the LPS and at the same time as the LPS.

[3] = ic = intracolonic administration

Row | Compound | CARRAGEENAN PLEURISY (4 hr) LOCAL ED50 (MG/RAT) CELLS (male Lewis rats [1]) | CARRAGEENAN PLEURISY (4 hr) LOCAL ED50 (MG/RAT) EDEMA (male Lewis rats [1]) [MG/RAT] | other results
1 | (E)-4-(1,3-Bis(cyclohexylmethyl)-1,2,3,6-tetrahydro-2,6-dioxo-9H-purin-8-yl)cinnamic Acid Polyethylene Glycol (n=18.9) Ester [Example 17] | 0.1 MG/RAT | 0.1 | 
2 | O=C(O)/C=C/c1ccc(-c2nc3c(=O)n(CC4CCCCC4)c(=O)n(CC4CCCCC4)c3[nH]2)cc1 [compound 1, (E)-4-[1,3 Bis(cyclohexylmethyl)-1,2,3,6-tetrahydro-2,6-dioxo-9H-purin-8-yl]cinnamic acid, reference compound] |  |  | activity in Carrageenan Pleurisy Assay (male Lewis rats [1]): inactive; activity in Acetic Acid Colitis Assay (male Lewis rats [2]): inactive; % Survivors (Male CD-1 mice): 25%; Alive/Total (Male CD-1 mice): 2/8
3 | COCCOCCOCCOCCOCCOCCOCCOCCOCCOC(=O)/C=C/c1ccc(-c2nc3c(=O)n(CC4CCCCC4)c(=O)n(CC4CCCCC4)c3[nH]2)cc1 [Example 10, (E)-4-(1,3-Bis(cyclohexylmethyl)-1,2,3,6-tetrahydro-2,6-dioxo-9H-purin-8-yl)cinnamic Acid Nonaethylene Glycol Methyl Ether Ester] | 0.5 MG/RAT | 0.5 | ACETIC ACID COLITIS (24 hr) ACTIVE DOSE [MG/KG] (ROUTE) TISSUE WEIGHT (male Lewis rats [2]; po = oral administration): 50 mg/kg; ACETIC ACID COLITIS (24 hr) ACTIVE DOSE [MG/KG] (ROUTE) MPO (male Lewis rats [2]; po = oral administration): 50 mg/kg
4 | (E)-4-(1,3-Bis(cyclohexylmethyl)-1,2,3,6-tetrahydro-2,6-dioxo-9H-purin-8-yl)cinnamic Acid Polyethylene Glycol (n=41.5) Methyl Ether Ester [Example 14] | Inactive | 0.5 | 
5 | (E)-4-(1,3-Bis(cyclohexylmethyl)-1,2,3,6-tetrahydro-2,6-dioxo-9H-purin-8-yl)cinnamic Acid Polyethylene Glycol (n=32.2) Ester [Example 16] | 0.2 MG/RAT | 0.2 | 
6 | (E)-4-(1,3-Bis(cyclohexylmethyl)-1,2,3,6-tetrahydro-2,6-dioxo-9H-purin-8-yl)cinnamic Acid Polyethylene Glycol (n=13) Ester [Example 18] | 0.1 MG/RAT | 0.1 | 
7 | COCCOCCOCCOCCOCCOCCOCCOCCOCCOCCOC(=O)/C=C/c1ccc(-c2nc3c(=O)n(CC4CCCCC4)c(=O)n(CC4CCCCC4)c3[nH]2)cc1 [Example 9, (E)-4-(1,3-Bis(cyclohexylmethyl)-1,2,3,6-tetrahydro-2,6-dioxo-9H-purin-8-yl)cinnamic Acid Decaethylene Glycol Methyl Ether Ester] | 0.02 MG/RAT | 0.2 | ACETIC ACID COLITIS (24 hr) ACTIVE DOSE [MG/KG] (ROUTE) TISSUE WEIGHT (male Lewis rats [2]; [3]): 5.0 mg/kg; ACETIC ACID COLITIS (24 hr) ACTIVE DOSE [MG/KG] (ROUTE) MPO (male Lewis rats [2]; [3]): 5.0 mg/kg; % Survivors (Male CD-1 mice): 50%; Alive/Total (Male CD-1 mice): 4/8
8 | (E)-4-(1,3-Bis(cyclohexylmethyl)-1,2,3,6-tetrahydro-2,6-dioxo-9H-purin-8-yl)cinnamic Acid Polyethylene Glycol (n=15) Methyl Ether Ester [Example 15] | 0.4 MG/RAT | 0.2 | ACETIC ACID COLITIS (24 hr) ACTIVE DOSE [MG/KG] (ROUTE) TISSUE WEIGHT (male Lewis rats [2]; po = oral administration): inactive; ACETIC ACID COLITIS (24 hr) ACTIVE DOSE [MG/KG] (ROUTE) MPO (male Lewis rats [2]; po = oral administration): 50 mg/kg
9 | C[C@@H]1C[C@H]2[C@@H]3CCC4=CC(=O)C=C[C@]4(C)[C@@]3(F)[C@@H](O)C[C@]2(C)[C@@]1(O)C(=O)CO [Dexamethasone, reference compound] | 0.02 MG/RAT | 0.015 | ACETIC ACID COLITIS (24 hr) ACTIVE DOSE [MG/KG] (ROUTE) TISSUE WEIGHT (male Lewis rats [2]; [3]): 0.17 mg/kg; ACETIC ACID COLITIS (24 hr) ACTIVE DOSE [MG/KG] (ROUTE) MPO (male Lewis rats [2]; [3]): 0.03 mg/kg
